Experimental data from the NIST ThermoML archive (doi:10.1021/je900194v).
“And” between values parts separate entries of the source, which are not always exact repeats. Identical values can stand only once.

Legend:
[1] = 101 kPa, Liquid; for viscosity: Capillary tube (Ostwald / Ubbelohde) method; for mass density: Vibrating tube method
[2] = xn = mol fraction of the nth substance listed; details: 101 kPa, Liquid; for viscosity: Capillary tube (Ostwald / Ubbelohde) method; for mass density: Vibrating tube method

Cc1ccccc1C [1,2-dimethylbenzene]
[1]
Details | mass density [kg/m3] | viscosity [mPa·s]
298.15 K | 875.08 | 0.758
308.15 K | 866.62 | 0.665
318.15 K | 858.12 | 0.589

Cc1ccccc1C [1,2-dimethylbenzene] + COC(=O)CCCCl
[2], x2 = 0
Details | mass density [kg/m3] | viscosity [mPa·s]
298.15 K | 875.08 | 0.758
308.15 K | 866.62 | 0.665
318.15 K | 858.12 | 0.589

Cc1cccc(C)c1 [1,3-dimethylbenzene]
[1]
Details | mass density [kg/m3] | viscosity [mPa·s]
298.15 K | 859.83 | 0.587
308.15 K | 851.19 | 0.524
318.15 K | 842.49 | 0.471

Cc1cccc(C)c1 [1,3-dimethylbenzene] + COC(=O)CCCCl
[2], x2 = 0
Details | mass density [kg/m3] | viscosity [mPa·s]
298.15 K | 859.83 | 0.587
308.15 K | 851.19 | 0.524
318.15 K | 842.49 | 0.471

Cc1ccc(C)cc1 [1,4-dimethylbenzene]
[1]
Details | mass density [kg/m3] | viscosity [mPa·s]
298.15 K | 856.68 | 0.609
308.15 K | 847.96 | 0.541
318.15 K | 839.2 | 0.484

Cc1ccc(C)cc1 [1,4-dimethylbenzene] + COC(=O)CCCCl
[2], x2 = 0
Details | mass density [kg/m3] | viscosity [mPa·s]
298.15 K | 856.68 | 0.609
308.15 K | 847.96 | 0.541
318.15 K | 839.2 | 0.484

c1ccccc1 [benzene]
[1]
Details | mass density [kg/m3] | viscosity [mPa·s]
298.15 K | 873.61 | 0.603
308.15 K | 862.28 | 0.533
318.15 K | 852.08 | 0.466

c1ccccc1 [benzene] + COC(=O)CCCCl
[2], x2 = 0
Details | mass density [kg/m3] | viscosity [mPa·s]
298.15 K | 873.61 | 0.603
308.15 K | 862.28 | 0.533
318.15 K | 852.08 | 0.466

COC(=O)CCCCl [methyl 4-chlorobutanoate]
[1]
Details | mass density | viscosity [mPa·s]
298.15 K | 1116.24 kg/m3 | 1.519
308.15 K | 1105.22 kg/m3 and 1105.23 kg/m3 | 1.279
318.15 K | 1094.13 kg/m3 | 1.089

COC(=O)CCCCl [methyl 4-chlorobutanoate] + Cc1ccc(C)cc1
[2]
Details | mass density, 298.15 K [kg/m3] | mass density, 308.15 K [kg/m3] | mass density, 318.15 K [kg/m3] | viscosity, 298.15 K [mPa·s] | viscosity, 308.15 K [mPa·s] | viscosity, 318.15 K [mPa·s]
x1 = 0.0999 | 882.47 | 873.48 | 864.45 | 0.662 | 0.586 | 0.522
x1 = 0.2001 | 908.43 | 899.17 | 889.87 | 0.714 | 0.629 | 0.561
x1 = 0.3 | 934.33 | 924.84 | 915.3 | 0.775 | 0.679 | 0.6
x1 = 0.4001 | 960.27 | 950.54 | 940.77 | 0.847 | 0.738 | 0.651
x1 = 0.4999 | 986.16 | 976.2 | 966.2 | 0.927 | 0.806 | 0.705
x1 = 0.6 | 1012.09 | 1001.91 | 991.69 | 1.023 | 0.886 | 0.772
x1 = 0.7 | 1038.03 | 1027.62 | 1017.19 | 1.133 | 0.978 | 0.846
x1 = 0.8 | 1063.99 | 1053.37 | 1042.71 | 1.255 | 1.077 | 0.926
x1 = 0.9 | 1090.06 | 1079.25 | 1068.37 | 1.385 | 1.179 | 1.008
x1 = 1 | 1116.24 | 1105.23 | 1094.13 | 1.519 | 1.279 | 1.089

COC(=O)CCCCl [methyl 4-chlorobutanoate] + Cc1cccc(C)c1
[2]
Details | mass density, 298.15 K [kg/m3] | mass density, 308.15 K [kg/m3] | mass density, 318.15 K [kg/m3] | viscosity, 298.15 K [mPa·s] | viscosity, 308.15 K [mPa·s] | viscosity, 318.15 K [mPa·s]
x1 = 0.0999 | 885.23 | 876.33 | 867.38 | 0.639 | 0.571 | 0.512
x1 = 0.1999 | 910.66 | 901.49 | 892.27 | 0.7 | 0.624 | 0.55
x1 = 0.2999 | 936.14 | 926.72 | 917.26 | 0.769 | 0.674 | 0.596
x1 = 0.399 | 961.41 | 951.74 | 942.03 | 0.843 | 0.737 | 0.649
x1 = 0.4999 | 987.21 | 977.32 | 967.37 | 0.928 | 0.807 | 0.706
x1 = 0.5995 | 1012.73 | 1002.6 | 992.39 | 1.022 | 0.882 | 0.77
x1 = 0.6996 | 1038.43 | 1028.06 | 1017.63 | 1.128 | 0.966 | 0.839
x1 = 0.7992 | 1064.11 | 1053.51 | 1042.83 | 1.238 | 1.062 | 0.92
x1 = 0.8999 | 1090.15 | 1079.3 | 1068.38 | 1.368 | 1.163 | 1.004
x1 = 1 | 1116.24 | 1105.22 | 1094.13 | 1.519 | 1.279 | 1.089
